# Measurements as given in patent US20240316078A1, “Treatment of Neuropathic Sensitization Disorders” (IVIEW Therapeutics, Inc., priority 2021, published 2024).
# Several values for one entry are separate records, joined by “and”; a condition that tells them apart may be missing. Equal values may be shown once.
# Columns and labels:
# [1] = test system: patients with DE-associated NOP; assay: Ocular Pain Assessment Survey (OPAS) in pilot study of topical cryosim-3; type: in vivo, human; settings: C3 2 mg/mL eyelid wipe 4 times/day, mean ± SD, 15 patients; for OPAS Tearing (0-1): baseline 0.36 ± 0.29; for OPAS Redness (0-1): baseline 0.41 ± 0.32; for OPAS Chemical stimuli (0-1): baseline 0.47 ± 0.35; for OPAS Burning sensation (0-1): baseline 0.57 ± 0.37; for OPAS Mechanical stimuli (0-1): baseline 0.63 ± 0.29; for OPAS Sensitivity to light (0-1): baseline 0.76 ± 0.24; for OPAS Aggravating factors (total 0-2): baseline 1.11 ± 0.49; for OPAS Associated factors (total 0-4): baseline 2.09 ± 0.76; for OPAS General activity (walking, etc.) (0-10): baseline 4.00 ± 3.18; for OPAS Sleep (0-10): baseline 4.27 ± 3.81; for OPAS Enjoying life/relations with other people (0-10): baseline 5.07 ± 2.84; for OPAS Mood (0-10): baseline 5.40 ± 2.77; for OPAS Driving and/or watching TV (0-10): baseline 6.80 ± 2.31; for OPAS Non-eye pain (0-20): baseline 7.67 ± 6.22; for OPAS Reading and/or computer use (0-10): baseline 7.79 ± 1.76; for OPAS Eye pain intensity (0-60): baseline 30.60 ± 12.84; for OPAS Quality of life (total 0-60): baseline 33.53 ± 14.24
# Description: (§1) This prospective non-randomized pilot study was conducted in accordance with the tenets of the Declaration of Helsinki. Ethical approval was obtained from the Chonnam National University Hospital Institutional Review Board (CNUH-2018-274). Informed consent was obtained from all included patients. The sample size was calculated using the G*Power software (version 3.1.9.4; Heinrich-Heine University, Germany) with a level of α=0.05 and a power of 95% to detect a 2-point difference in pain scales. Accordingly, a total sample size of 13 patients was found sufficient.
# (§2) Patients with DE accompanied by NOP features, who underwent evaluation between January and December in 2018, were enrolled. DE was diagnosed based on OSDI score ≥13 and tear break-up time (TBUT) ≤7 s. The inclusion criteria were as follows: (1) chronic ocular pain which was unresponsive to conventional topical agents (i.e. lubricants, anti-inflammatories, secretagogues, etc.) for >3 months; (2) discordance between the painful DE symptoms and signs accompanying with specific descriptors, including burning or stinging; and (3) a Wong-Baker FACES Pain Rating Scale (WBFPS) score […].
# (§3) The patients were treated with add-on C3 while undergoing conventional topical treatment. C3 samples (2 mg/mL) were diluted in purified water, soaked in gauze, and packaged using automated equipment. The patients applied topical C3 by wiping the gauze on the closed eyelid margin, 4 times/day for 1 month (FIG. 1).
# The WBFPS was chosen to screen the pain severity in the patients with DE. The patients chose the face that best depicted the pain they were experiencing. At baseline, 1 week, and 1 month after treatment, the patients also completed the OPAS which is a validated questionnaire for neuropathic pain as previously described. The questions were divided into sections for analysis: questions 4-9, pertained to eye pain intensity (0 to 60); questions 10-11, pertained to non-eye pain (0 to 20); questions 13-19 (0-10, total score 0 to 60), assessed the QoL (reading and/or computer use, driving and/or watching TV, general activity, mood, sleep, and enjoying life/relations with other people); questions 20-21 (each score 0-1, total score 0-2), assessed aggravating factors (mechanical and chemical stimuli); and questions 22-25 (each score 0-1, total score 0-4), assessed associated factors (redness; burning; sensitivity to light; and tearing). The section on symptomatic relief of the OPAS was excluded, and only questions 4-25 were analyzed. The questions were divided into 5 sections as follows: eye pain intensity, non-eye pain, QoL, aggravating factors, and associated factors.
# (§4) Statistical analyses were conducted using PASW Statistics for Windows, Version 18.0 (SPSS Inc., Chicago, IL, USA). The normality of distribution was assessed using the Shapiro-Wilk test. The Wilcoxon signed-rank test and repeated-measures analysis of variance with Bonferroni's post-hoc test were used for comparing parameters before and after treatment. A P<0.05 was considered statistically significant.
# [2] = test system: patients with DE-associated NOP; assay: Clinical dry eye parameters (OSDI, TBUT, Schirmer test, corneal staining) in pilot study; type: in vivo, human; settings: C3 2 mg/mL eyelid wipe 4 times/day, 1-month, mean ± SD
# Source text: as §2, §3
# The OSDI questionnaire which ranged from 0 to 100 was used to quantify the vision-related QoL. TBUT (tear breakup time), the time interval between the last complete blink and the first appearance of disruption of the tear film, was measured thrice and the mean value was used for analysis. Corneal staining scores were assessed using the area-density index, by multiplying the area and density score. The Schirmer test score represented the length of wetting, and was measured using a calibrated sterile strip placed at the lateral canthus for 5 min under topical anesthesia (0.5% proparacaine). Only the score of the right eye was assessed.
# as §4
# [3] = test system: patients with DE-associated NOP; assay: Wong-Baker FACES Pain Rating Scale (WBFPS) in enrolled patients; type: in vivo, human; settings: individual patients No. 1-15
# Source text: as §2
# The patients were treated with add-on C3 while undergoing conventional topical treatment. […]
# The WBFPS was chosen to screen the pain severity in the patients with DE. […] The questions were divided into sections for analysis: questions 4-9, pertained to eye pain intensity (0 to 60); questions 10-11, pertained to non-eye pain (0 to 20); questions 13-19 (0-10, total score 0 to 60), assessed the QoL (reading and/or computer use, driving and/or watching TV, general activity, mood, sleep, and enjoying life/relations with other people); questions 20-21 (each score 0-1, total score 0-2), assessed aggravating factors (mechanical and chemical stimuli); and questions 22-25 (each score 0-1, total score 0-4), assessed associated factors (redness; burning; sensitivity to light; and tearing). […]
# [4] = test system: patients with DE accompanying NOP features; assay: Pilot study: discontinuation, safety and onset of effect; type: in vivo, human
# Description: as §1, §3
# This study enrolled 20 patients with DE accompanying NOP features. Five patients (25.0%) discontinued the treatment because of drug ineffectiveness or intolerance. The remaining 15 patients (75.0%) were included in the analysis. Their mean age was 59.5±13.0 years, and nine patients (60.0%) were women.
# [5] = test system: patients with mild DE; settings: cited from earlier work
# [6] = topical C3 in DE, previous study
structure (smiles),measurement,setting,value
"CCCCCCCCCP(=O)(C(C)C)C(C)C [cryosim-3, 1-[Diisopropyl-phosphinoyl]-nonane]",OPAS Tearing (0-1),[1]; 1-month,0.21 ± 0.27
same,OPAS Redness (0-1),[1]; 1-month,0.39 ± 0.30
same,OPAS Chemical stimuli (0-1),[1]; 1-month,0.41 ± 0.32
same,OPAS Burning sensation (0-1),[1]; 1-month,0.29 ± 0.29
same,OPAS Mechanical stimuli (0-1),[1]; 1-month,0.47 ± 0.26
same,OPAS Sensitivity to light (0-1),[1]; 1-month,0.59 ± 0.28
same,OPAS Aggravating factors (total 0-2),[1]; 1-month,0.88 ± 0.57
same,OPAS Associated factors (total 0-4),[1]; 1-month,1.58 ± 0.93
same,"OPAS General activity (walking, etc.) (0-10)",[1]; 1-month,3.20 ± 2.86
same,OPAS Sleep (0-10),[1]; 1-month,2.73 ± 3.81
same,OPAS Enjoying life/relations with other people (0-10),[1]; 1-month,4.27 ± 3.03
same,OPAS Mood (0-10),[1]; 1-month,4.40 ± 2.47
same,OPAS Driving and/or watching TV (0-10),[1]; 1-month,5.60 ± 2.90
same,OPAS Non-eye pain (0-20),[1]; 1-month,5.47 ± 5.62
same,OPAS Reading and/or computer use (0-10),[1]; 1-month,6.93 ± 2.59
same,OPAS Eye pain intensity (0-60),[1]; 1-month,21.53 ± 10.84
same,OPAS Quality of life (total 0-60),[1]; 1-month,27.17 ± 16.06
same,OPAS Tearing (0-1),[1]; 1-week,0.17 ± 0.18
same,OPAS Redness (0-1),[1]; 1-week,0.41 ± 0.30
same,OPAS Chemical stimuli (0-1),[1]; 1-week,0.41 ± 0.35
same,OPAS Burning sensation (0-1),[1]; 1-week,0.40 ± 0.33
same,OPAS Mechanical stimuli (0-1),[1]; 1-week,0.47 ± 0.25
same,OPAS Sensitivity to light (0-1),[1]; 1-week,0.57 ± 0.26
same,OPAS Aggravating factors (total 0-2),[1]; 1-week,0.87 ± 0.56
same,OPAS Associated factors (total 0-4),[1]; 1-week,1.55 ± 0.85
same,"OPAS General activity (walking, etc.) (0-10)",[1]; 1-week,3.27 ± 2.71
same,OPAS Sleep (0-10),[1]; 1-week,2.93 ± 3.67
same,OPAS Enjoying life/relations with other people (0-10),[1]; 1-week,4.33 ± 2.97
same,OPAS Mood (0-10),[1]; 1-week,4.53 ± 2.50
same,OPAS Driving and/or watching TV (0-10),[1]; 1-week,5.27 ± 2.52
same,OPAS Non-eye pain (0-20),[1]; 1-week,6.73 ± 6.18
same,OPAS Reading and/or computer use (0-10),[1]; 1-week,7.14 ± 2.48
same,OPAS Eye pain intensity (0-60),[1]; 1-week,26.47 ± 11.45
same,OPAS Quality of life (total 0-60),[1]; 1-week,27.60 ± 15.49
same,Schirmer test score,"[2]; 5 min under topical anesthesia, baseline 7.07 ± 2.76",8.47 ± 2.80 mm
same,Corneal staining score (0-9),[2]; baseline 0.60 ± 0.91,0.13 ± 0.35
same,Tear break-up time,[2]; baseline 4.13 ± 0.83,4.00 ± 0.85 s
same,Ocular surface disease index,"[2]; scale 0 to 100, baseline 57.5 ± 13.8",40.2 ± 12.6
same,WBFPS score,[3]; 1 month of add-on C3 2 mg/mL eyelid wipe 4 times/day,2 and 5 (4×) and 6 (2×) and 3 and 4 (3×) and 1 (3×) and 7
same,WBFPS score,[3]; 1 week of add-on C3 2 mg/mL eyelid wipe 4 times/day,1 (4×) and 7 (3×) and 6 (5×) and 3 and 5 (2×)
same,patients who discontinued the treatment because of drug ineffectiveness or intolerance,[4]; five of 20 enrolled patients,25.0%
same,time to improvement of ocular pain after C3 treatment,[4]; patients unresponsive to conventional treatment (122.7 days),≤ 1 week
same,safety and effectiveness of topical application to the eyelid in relieving NOP,[4]; patients with DE,safe and effective
same,effect on basal tear secretion,[5]; [6],increasing basal tear secretion
same,effect on ocular discomfort,[5]; [6],alleviating ocular discomfort without any complications
same,duration of painless cooling sensation after wiping,[5]; wiping of C3,approximately 40 minutes
